Source: patent publication US12077483B2, “Modified amine lipids” (Intellia Therapeutics, Inc., priority 2018, dated 2024)

Experiments:
[1] = pKa of amine lipid by TNS fluorescence; format: physicochemical; conditions: probe TNS (6-(p-toluidino)-2-naphthalenesulfonic acid sodium salt), unformulated amine lipid in ethanol, sodium phosphate buffers -9.0
Outline: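 pKa derived from a sigmoidal fit of normalized TNS fluorescence (321 nm excitation, 448 nm emission) versus pH. Lipid from ethanol stock diluted to about 100 μM final in 0.1 M phosphate buffers, pH 4.5–9.0.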

[2] = system: mouse TTR; assay: Serum TTR ELISA in mice after LNP delivery; format: in vivo; conditions: mouse serum, relative to TSS control of same experiment
Outline: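 Mouse TTR in serum was quantified by ELISA (samples diluted e.g. 10,000- and/or 2,500-fold) 6–7 days after dosing CD-1 females with LNP, typically 0.1 mpk. Values are reported relative to vehicle-treated controls (%).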

[3] = LNP average particle size and polydispersity by dynamic light scattering; format: physicochemical; conditions: LNP with the compound as amine lipid
Outline: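 LNPs were diluted in PBS to a count rate of about 200-400 kcps and measured by DLS on a Zetasizer. Size is the intensity-weighted Z-average diameter, reported with number-average diameter, and the polydispersity index describes the spread of sizes around the mean.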

[4] = RNA encapsulation efficiency of LNP (Ribogreen fluorescence assay); format: physicochemical; conditions: LNP with the compound as amine lipid
Outline: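 LNP samples diluted in 1× TE with or without 0.2% Triton-X 100 for total or free RNA, stained ~10 min at room temperature in the dark with RiboGreen; fluorescence ex 488/em 525 nm against RNA standard curves. Encapsulation efficiency = (Total RNA−Free RNA)/Total RNA.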

[5] = Expt. 1, composition ratio (mol %) 50/9/38/3 for Cmpnd 49, 50/10/38.5/1.5 for the others
[6] = Expt. 9, composition ratio (mol %) 50/9/38/3 for Cmpnd 49, 50/10/38.5/1.5 for the others
[7] = Expt. 10, composition ratio (mol %) 50/9/38/3 for Cmpnd 49, 50/10/38.5/1.5 for the others
[8] = Expt. 5, composition ratio (mol %) 50/10/38.5/1.5
[9] = Expt. 6, composition ratio (mol %) 50/9/38/3 for Cmpnd 49, 50/10/38.5/1.5 for the others

Structure (SMILES) | pKa [1] | Serum TTR % TSS ([2]; dose 0.1 mpk) | Num Ave Size (nm) [3, 5] | PDI [3, 5] | Z-Ave Size (nm) [3, 5] | Encapsulation (%) [4, 5] | Serum TTR % TSS ([2]; dose 0.03 mpk) | also measured
CCCCCCCCCCOC(=O)CCCCCCCC(=O)OCC(COC(=O)CCCCCCCC(=O)OCCCCCCCCCC)OC(=O)CCC(CCCCCCCC)OC(=O)NCCN(C)CC (stereo not drawn) [Compound 57, 9,9′-didecyl O′1,O1-(2-((4-(((2-(ethyl(methyl)amino)ethyl)carbamoyl)oxy)dodecanoyl)oxy)propane-1,3-diyl) di(nonanedioate)] | 6.18 | 24.58 % TSS | 83.73 nm | 0.02 | 100.40 nm | 98% |  | 
CCCCC/C=C\C/C=C\CCCCCCCC(=O)OCC(COC(=O)CCCCCCC/C=C\C/C=C\CCCCC)OC(=O)CCC(CCC(C)CCCC(C)C)OC(=O)NCCN1CCCC1 (stereo not drawn) [Compound 105, 2-((7,11-dimethyl-4-(((2-(pyrrolidin-1l-yl)ethyl)carbamoyl)oxy)dodecanoyl)oxy)propane-1,3-diyl (9Z,9′Z,12Z,12′Z)-bis(octadeca-9,12-dienoate)] | 6.53 |  |  |  |  |  | 47.97 % TSS | Num Ave Size (nm) [3, 6]: 64 nm; PDI [3, 6]: 0.02; Z-Ave Size (nm) [3, 6]: 80 nm; Encapsulation (%) [4, 6]: 99%
CCCCC/C=C\C/C=C\CCCCCCCC(=O)OCC(COC(=O)CCCCCCC/C=C\C/C=C\CCCCC)OC(=O)CC(CCCCCCCC)OC(=O)NCCN(C)CC (stereo not drawn) [Compound 52, 2-((3-(((2-(ethyl(methyl)amino)ethyl)carbamoyl)oxy)undecanoyl)oxy)propane-1,3-diyl (9Z,9′Z,12Z,12′Z)-bis(octadeca-9,12-dienoate)] | 6.26 | 17.31 % TSS | 74.35 nm | 0.03 | 90.75 nm | 98% |  | 
CCCCC/C=C\C/C=C\CCCCCCCC(=O)OCC(COC(=O)CCCCCCC/C=C\C/C=C\CCCCC)OC(=O)CC[C@H](CCCCCC)OC(=O)NCCN1CCCC1 [Compound 89, 2-(((S)-4-(((2-(pyrrolidin-1-yl)ethyl)carbamoyl)oxy)decanoyl)oxy)propane-1,3-diyl (9Z,9′Z,12Z,12′Z)-bis(octadeca-9,12-dienoate)] | 6.76 |  |  |  |  |  | 48.65 % TSS | Num Ave Size (nm) [3, 6]: 73 nm; PDI [3, 6]: 0.01; Z-Ave Size (nm) [3, 6]: 88 nm; Encapsulation (%) [4, 6]: 98%
CCCCC/C=C\C/C=C\CCCCCCCC(=O)OCC(COC(=O)CCCCCCC/C=C\C/C=C\CCCCC)OC(=O)CCCC(CCCCCCCC)OC(=O)NCCN(C)CC (stereo not drawn) [Compound 97, 2-((5-(((2-(ethyl(methyl)amino)ethyl)carbamoyl)oxy)tridecanoyl)oxy)propane-1,3-diyl (9Z,9′Z,12Z,12′Z)-bis(octadeca-9,12-dienoate)] | 6.38 |  |  |  |  |  | 79% TSS | Num Ave Size (nm) [3, 7]: 75 nm; PDI [3, 7]: 0.03; Z-Ave Size (nm) [3, 7]: 92 nm; Encapsulation (%) [4, 7]: 98%
CCCCC/C=C\C/C=C\CCCCCCCC(=O)OCC(COC(=O)CCCCCCCC(=O)OCCCCCCCCCCC)OC(=O)CCC(CCCCCCCC)OC(=O)NCCN(C)CC (stereo not drawn) [Compound 63, 1-(3-methyl-14-((((9Z,12Z)-octadeca-9,12-dienoyl)oxy)methyl)-9-octyl-7,12-dioxo-8,13-dioxa-3,6-diazapentadecan-15-yl) 9-undecyl nonanedioate] | 6.32 | 83.86 % TSS | 82.18 nm | 0.04 | 106.00 nm | 98% |  | 
CCCCC/C=C\C/C=C\CCCCCCCC(=O)OCC(COC(=O)CCCCCCC/C=C\C/C=C\CCCCC)OC(=O)CCC(CCCCCC)OC(=O)NC(C)(C)CN1CCCC1 (stereo not drawn) [Compound 79, 2-((4-(((2-methyl-1-(pyrrolidin-1-yl)propan-2-yl)carbamoyl)oxy)decanoyl)oxy)propane-1,3-diyl (9Z,9′Z,12Z,12′Z)-bis(octadeca-9,12-dienoate)] | 4.96 | 100.4 % TSS |  |  |  |  | 86.9 % TSS | Num Ave Size (nm) [3, 8]: 55 nm; PDI [3, 8]: 0.09; Z-Ave Size (nm) [3, 8]: 75.00 nm; Encapsulation (%) [4, 8]: 98%
CCCCC/C=C\C/C=C\CCCCCCCC(=O)OCC(COC(=O)CCCCCCC/C=C\C/C=C\CCCCC)COC(=O)CC(CCCCCCCC)OC(=O)NCCN(C)CC (stereo not drawn) [Compound 53, 2-(11-methyl-5-octyl-3,7-dioxo-2,6-dioxa-8,11-diazatridecyl)propane-1,3-diyl (9Z,9′Z,12Z,12′Z)-bis(octadeca-9,12-dienoate)] | 6.29 | 13.97 % TSS | 75.76 nm | 0.05 | 92.99 nm | 99% |  | 
CCCCC/C=C\C/C=C\CCCCCCCC(=O)OCC(COC(=O)CCCCCCC/C=C\C/C=C\CCCCC)COC(=O)C(C)(C)C(CCCCCC)OC(=O)NCCN1CCCC1 (stereo not drawn) [Compound 100, 2-(((2,2-dimethyl-3-(((2-(pyrrolidin-1-yl)ethyl)carbamoyl)oxy)nonanoyl)oxy)methyl)propane-1,3-diyl (9Z,9′Z,12Z,12′Z)-bis(octadeca-9,12-dienoate)] | 6.6 |  |  |  |  |  | 46.68 % TSS | Num Ave Size (nm) [3, 6]: 83 nm; PDI [3, 6]: 0.05; Z-Ave Size (nm) [3, 6]: 102 nm; Encapsulation (%) [4, 6]: 99%
CCCCC/C=C\C/C=C\CCCCCCCC(=O)OCC(COC(=O)CCCCCCC/C=C\C/C=C\CCCCC)OC(=O)CCC(CC(CC)CC)OC(=O)NCCN(C)CC (stereo not drawn) [Compound 103, 2-((6-ethyl-4-(((2-(ethyl(methyl)amino)ethyl)carbamoyl)oxy)octanoyl)oxy)propane-1,3-diyl (9Z,9′Z,12Z,12′Z)-bis(octadeca-9,12-dienoate)] | 6.09 | 29.05 % TSS |  |  |  |  | 72.23 % TSS | Num Ave Size (nm) [3, 9]: 82 nm; PDI [3, 9]: 0.01; Z-Ave Size (nm) [3, 9]: 102.00 nm; Encapsulation (%) [4, 9]: 91%
CCCCC/C=C\C/C=C\CCCCCCCC(=O)OCC(COC(=O)CCCCCCC/C=C\C/C=C\CCCCC)OC(=O)CCC(CCCCCCCC)OC(=O)OC1CCN(C)CC1 (stereo not drawn) [Compound 92, 2-((4-((((1-methylpiperidin-4-yl)oxy)carbonyl)oxy)dodecanoyl)oxy)propane-1,3-diyl (9Z,9′Z,12Z,12′Z)-bis(octadeca-9,12-dienoate)] | 5.96 |  |  |  |  |  | 120% TSS | Num Ave Size (nm) [3, 7]: 51 nm; PDI [3, 7]: 0.06; Z-Ave Size (nm) [3, 7]: 67 nm; Encapsulation (%) [4, 7]: 98%
CCCCC/C=C\C/C=C\CCCCCCCC(=O)OCC(COC(=O)CCCCCCC/C=C\C/C=C\CCCCC)OC(=O)CCC(CCCCCCCC)OC(=O)NCCN1CCC1 (stereo not drawn) [Compound 93, 2-((4-(((2-(azetidin-1-yl)ethyl)carbamoyl)oxy)dodecanoyl)oxy)propane-1,3-diyl (9Z,9′Z,12Z,12′Z)-bis(octadeca-9,12-dienoate)] | 6.96 |  |  |  |  |  | 100% TSS | Num Ave Size (nm) [3, 7]: 86 nm; PDI [3, 7]: 0.01; Z-Ave Size (nm) [3, 7]: 103 nm; Encapsulation (%) [4, 7]: 98%
CCCCC/C=C\C/C=C\CCCCCCCC(=O)OCC(COC(=O)CCCCCCC/C=C\C/C=C\CCCCC)OC(=O)CCC(CCCCCC)OC(=O)NCCN1CCCCC1 (stereo not drawn) [Compound 78, 2-((4-(((2-(piperidin-1-yl)ethyl)carbamoyl)oxy)decanoyl)oxy)propane-1,3-diyl (9Z,9′Z,12Z,12′Z)-bis(octadeca-9,12-dienoate)] | 5.93 | 66.5 % TSS |  |  |  |  | 99.8 % TSS | Num Ave Size (nm) [3, 8]: 59 nm; PDI [3, 8]: 0.13; Z-Ave Size (nm) [3, 8]: 91.00 nm; Encapsulation (%) [4, 8]: 97%
